Experimental data published in patent US20090215857A1 (Pfizer Products Inc., priority 2005, published 2009).
pKi: −log10 of the molar value. Structures can show the parent of a compound that is named as a salt.

Legend:
[1] = biological target: T1, human serotonin transporter (Homo sapiens, UniProt P31645); assay: hSERT receptor binding ([125I]-RTI-55 radioligand); conditions: membranes of HEK-293 cells transfected with human serotonin transporter cDNA; 50 pM [125I]-RTI-55; IC50 converted by Cheng-Prusoff; read-out: SERT Ki
T1 construct: expressed in transfected cells; host or cells: HEK-293
T1 sequence (P31645 whole entry): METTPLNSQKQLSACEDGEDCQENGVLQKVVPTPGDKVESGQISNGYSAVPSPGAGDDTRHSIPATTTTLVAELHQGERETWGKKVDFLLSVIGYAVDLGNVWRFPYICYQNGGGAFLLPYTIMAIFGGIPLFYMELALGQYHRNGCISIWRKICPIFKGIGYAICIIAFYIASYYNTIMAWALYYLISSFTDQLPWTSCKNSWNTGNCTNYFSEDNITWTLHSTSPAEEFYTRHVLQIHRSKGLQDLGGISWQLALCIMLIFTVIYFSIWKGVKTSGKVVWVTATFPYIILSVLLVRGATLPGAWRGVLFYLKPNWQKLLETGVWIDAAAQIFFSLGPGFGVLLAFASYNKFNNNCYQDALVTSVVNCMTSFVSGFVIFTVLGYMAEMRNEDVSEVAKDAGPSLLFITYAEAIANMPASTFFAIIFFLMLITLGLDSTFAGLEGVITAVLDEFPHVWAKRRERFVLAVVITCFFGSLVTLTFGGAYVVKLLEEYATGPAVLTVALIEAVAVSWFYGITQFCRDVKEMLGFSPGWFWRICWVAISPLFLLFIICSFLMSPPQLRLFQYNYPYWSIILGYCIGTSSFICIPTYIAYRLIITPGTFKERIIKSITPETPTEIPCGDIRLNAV
In short: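 HEK-293 membranes expressing transfected human transporter were incubated with 50 pM [125I]-RTI-55 and test compound (10^−5 to 10^−12 M) in Krebs-HEPES pH 7.4 for 90 min at RT.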

[2] = biological target: T2, human norepinephrine transporter (Homo sapiens, UniProt P23975); assay: hNET receptor binding ([125I]-RTI-55 radioligand); conditions: membranes of HEK-293 cells transfected with human norepinephrine transporter cDNA; 50 pM [125I]-RTI-55; IC50 converted by Cheng-Prusoff; read-out: NET Ki
T2 construct: expressed in transfected cells; host or cells: HEK-293
T2 sequence (P23975 whole entry): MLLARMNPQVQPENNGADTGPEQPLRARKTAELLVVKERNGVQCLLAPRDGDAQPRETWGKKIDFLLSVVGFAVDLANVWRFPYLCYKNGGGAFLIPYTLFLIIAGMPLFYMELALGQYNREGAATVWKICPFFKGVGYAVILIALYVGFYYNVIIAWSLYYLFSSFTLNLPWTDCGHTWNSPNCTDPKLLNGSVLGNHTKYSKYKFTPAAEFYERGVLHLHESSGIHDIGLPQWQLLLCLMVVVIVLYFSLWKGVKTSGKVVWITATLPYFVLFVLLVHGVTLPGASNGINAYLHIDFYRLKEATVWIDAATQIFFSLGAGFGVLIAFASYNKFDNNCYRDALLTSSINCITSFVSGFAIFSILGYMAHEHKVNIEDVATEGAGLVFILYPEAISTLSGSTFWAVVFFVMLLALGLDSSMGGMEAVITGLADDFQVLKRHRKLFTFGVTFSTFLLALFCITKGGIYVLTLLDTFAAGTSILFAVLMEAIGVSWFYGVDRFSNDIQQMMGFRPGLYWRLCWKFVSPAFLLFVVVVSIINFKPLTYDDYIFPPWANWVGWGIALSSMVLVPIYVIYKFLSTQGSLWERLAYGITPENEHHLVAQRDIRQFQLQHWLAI
In short: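 Membranes from HEK-293 cells expressing human NET were incubated 90 min at room temperature with 50 pM [125I]-RTI-55 and test compound (10^−5M to 10^−12M) in Krebs-HEPES, pH 7.4.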

Row | pKi [1] | pKi [2] | Compound
1 | 5.26 | 5.27 | N#Cc1ccc(-c2ccccc2CO[C@H]2CCNC2)cc1 [Example D-51]
2 | 5.25 | 5.99 | Fc1ccc(-c2ncccc2CO[C@H]2CCNC2)c(F)c1 [Example B-1, (S)-2-(2,4-Difluoro-phenyl)-3-(pyrrolidin-3-yloxymethyl)-pyridine fumarate]
3 | 6.29 | 7.17 | Oc1cccc(-c2ccc(F)cc2CO[C@H]2CCNC2)c1 [Example D-90, (S)-4′-Fluoro-2′-(pyrrolidin-3-yloxymethyl)-biphenyl-3-ol]
4 | 5.42 | 6.02 | Fc1ccc(-c2ccccc2-c2ccccc2)c(CO[C@H]2CCNC2)c1 [Example D-101, (S)-3-(4″-Fluoro-[1,1′,2′,1″]terphenyl-2″-ylmethoxy)-pyrrolidine]
5 | 7.15 | 6.96 | Fc1ccc(-c2ccc(Cl)c(Cl)c2)c(CO[C@H]2CCNC2)c1 [Example D-83, (S)-3-(3′,4′-Dichloro-4-fluoro-biphenyl-2-ylmethoxy)-pyrrolidine]
6 | 6.10 | 6.00 | COc1ccc(Cl)cc1-c1ccc(F)cc1CO[C@H]1CCNC1 [Example D-61, (S)-3-(5′-Chloro-4-fluoro-2′-methoxy-biphenyl-2-ylmethoxy)-pyrrolidine]
7 | 7.91 | 5.48 | c1cc(-c2ccccc2CO[C@H]2CCNC2)cc(-n2cccn2)c1 [Example D-45, (S)-1-[2′-(Pyrroldin-3-yloxymethyl)-biphenyl-3-yl]-1H-pyrazole]
8 | 6.46 | 6.97 | Clc1ccccc1-c1ccccc1CO[C@H]1CCNC1 [Example D-19, (S)-3-(2′-Chloro-biphenyl-2-ylmethoxy)-pyrrolidine]
9 | 6.90 | 7.18 | Fc1ccc(-c2ccccc2)c(CO[C@H]2CCNC2)c1 [Example D-66, (S)-3-(4-Fluoro-biphenyl-2-ylmethoxy)-pyrrolidine]
10 | ≤ 5.00 | ≤ 5.00 | N#Cc1ccccc1-c1ccccc1CO[C@H]1CCNC1 [Example D-52]
11 | 7.77 | 5.57 | FC(F)(F)Oc1ccc(-c2ccccc2CO[C@H]2CCNC2)cc1 [Example D-43, (S)-3-(4′-Trifluoromethoxy-biphenyl-2-ylmethoxy)-pyrrolidine]
12 | 7.91 | 5.48 | COc1ccc(Cl)cc1-c1ccccc1CO[C@H]1CCNC1 [Example D-44, (S)-3-(5′-Chloro-2′-methoxy-biphenyl-2-ylmethoxy)-pyrrolidine]
13 | 6.43 | 5.71 | CC(=O)c1cccc(-c2ccc(F)cc2CO[C@H]2CCNC2)c1 [Example D-81, (S)-1-[4′-Fluoro-2′-(pyrrolidin-3-yloxymethyl)-biphenyl-3-yl]-ethanone]
14 | 5.42 | 5.41 | c1ccc(-c2ccc3c(c2)OCCO3)c(CO[C@H]2CCNC2)c1 [Example D-46]
15 | 6.69 | 7.17 | c1ccc(-c2ccccc2CO[C@@H]2CCNC2)cc1 [Example A-14, (R)-3-(Biphenyl-2-ylmethoxy)-pyrrolidine hydrochloride]
16 | 7.11 | 6.59 | Cc1cccc(-c2ccc(F)cc2CO[C@H]2CCNC2)c1C [Example D-82, (S)-3-(4-Fluoro-2′,3′-dimethyl-biphenyl-2-ylmethoxy)-pyrrolidine]
17 | 6.97 | 7.22 | Fc1ccc(-c2ccc(F)c(F)c2)c(CO[C@H]2CCNC2)c1 [Example D-71, (S)-(4,3′,4′-Trifluoro-biphenyl-2-ylmethoxy)-pyrrolidine]
18 | 5.98 | 5.99 | CC(C)OC(=O)c1ccc(-c2ccc(F)cc2CO[C@H]2CCNC2)cc1 [Example D-88, (S)-4′-Fluoro-2′-(pyrrolidine-3-yloxymethyl)-biphenyl-4-carboxylic acid isopropyl ester]
19 | 6.45 | 6.69 | COc1ccccc1-c1ccc(F)cc1CO[C@H]1CCNC1 [Example D-72, (S)-3-(4-Fluoro-2′-methoxy-biphenyl-2-ylmethoxy)-pyrrolidine]
20 | 7.22 | 6.23 | Cc1cccc(-c2ccccc2CO[C@H]2CCNC2)c1C [Example D-35, (S)-3-(2′,3′-Dimethyl-biphenyl-2-ylmethoxy)-pyrrolidine]

Second part, the compound before the results:

Row | Compound | pKi [1] | pKi [2]
21 | COc1ccc(F)cc1-c1ccccc1CO[C@H]1CCNC1 [Example A-22, fumarate] | 6.86 | ≤ 5.00
22 | Fc1ccc(CO[C@H]2CCNC2)c(-c2cccc(F)c2F)c1 [Example A-24, (S)-(5,2′,3′-Trifluoro-biphenyl-2-ylmethoxy)-pyrrolidine hydrochloride] | 6.63 | 7.85
23 | Fc1ccc(-c2cccc(C(F)(F)F)c2)c(CO[C@H]2CCNC2)c1 [Example D-75, (S)-3-(4-Fluoro-3′-trifluoromethyl-biphenyl-2-ylmethoxy)-pyrrolidine] | 6.98 | 6.22
24 | CCS(=O)(=O)c1ccc(-c2ccc(F)cc2CO[C@H]2CCNC2)cc1 [Example D-109, (S)-3-(4′-Ethanesulfonyl-4-fluoro-biphenyl-2-ylmethoxy)-pyrrolidine] | ≤ 5.00 | ≤ 5.00
25 | CCOc1ccc(-c2ccc(F)cc2CO[C@H]2CCNC2)cc1 [Example D-85, (S)-3-(4′-Ethoxy-4-fluoro-biphenyl-2-ylmethoxy)-pyrrolidine] | 6.49 | 6.15
26 | CCc1ccc(-c2ccc(F)cc2CO[C@H]2CCNC2)cc1 [Example D-76, (S)-3-(4′-Ethyl-4-fluoro-biphenyl-2-ylmethoxy)-pyrrolidine] | 6.13 | 5.89
27 | N#Cc1cccc(-c2ccc(F)cc2F)c1CO[C@H]1CCNC1 [Example E-2, (S)-2′,4′-Difluoro-2-(pyrrolidin-3-yloxymethyl)-biphenyl-3-carbonitrile fumarate] | 5.42 | 6.12
28 | Cc1ccc(-c2ccccc2CO[C@H]2CCNC2)cc1 [Example A-2, (S)-3-(4′-Methyl-biphenyl-2-ylmethoxy)-pyrrolidine hydrochloride] | 7.03 | 8.12
29 | c1cncc(-c2ccccc2CO[C@H]2CCNC2)c1 [Example A-27, (S)-3-[2-(Pyrrolidin-3-yloxymethyl)-phenyl]-pyridine hydrochloride] | 6.68 | 5.66
30 | Cc1cccc(-c2ccccc2CO[C@H]2CCNC2)c1C [Example D-33, (S)-3-(2′,3′-Dimethyl-biphenyl-2-ylmethoxy)-pyrrolidine] | 7.54 | 6.28
31 | CC(C)Oc1ccc(-c2ccc(F)cc2CO[C@H]2CCNC2)cc1 [Example D-107, (S)-3-(4-Fluoro-4′-isopropoxy-biphenyl-2-ylmethoxy)-pyrrolidine] | 6.41 | 5.42
32 | N#Cc1cccc(-c2ccccc2CO[C@H]2CCNC2)c1 [Example D-30] | 6.55 | 6.43
33 | Fc1ccccc1-c1ccccc1CO[C@@H]1CCNC1 [Example A-16, (R)-3-(2′-Fluoro-biphenyl-2-ylmethoxy)-pyrrolidine fumarate] | 6.36 | 7.05
34 | Fc1ccc(-c2ccc(F)cc2CO[C@H]2CCNC2)cc1 [Example D-74, (S)-3-(4,4′-Difluoro-biphenyl-2-ylmethoxy)-pyrrolidine] | 6.84 | 7.36
35 | Fc1ccc(-c2ccccc2F)c(CO[C@H]2CCNC2)c1 [Example A-9, (S)-3-(4,2′-Difluoro-biphenyl-2-ylmethoxy)-pyrrolidine fumarate] | 6.76 | 7.75
36 | CC(=O)c1ccc(-c2ccc(F)cc2CO[C@H]2CCNC2)cc1 [Example D-78, (S)-1-[4′-Fluoro-2′-(pyrrolidin-3-yloxymethyl)-biphenyl-4-yl]-ethanone] | 6.35 | 5.16
37 | CCS(=O)(=O)c1ccc(-c2ccccc2CO[C@H]2CCNC2)cc1 [Example D-58, (S)-3-(4′-Ethanesulfonyl-biphenyl-2-ylmethoxy)-pyrrolidine] | 5.52 | ≤ 5.00
38 | (S)-1-{3-[2-Pyrrolidin-3-yloxymethyl)-phenyl]-pyridin-2-yl}-piperazine [Example D-125] | 5.16 | ≤ 5.00
39 | Cc1ccc(-c2ccccc2CO[C@H]2CCNC2)cc1C [Example D-7, (S)-3-(3′,4′-Dimethyl-biphenyl-2-ylmethoxy)-pyrrolidine] | 6.96 | 7.67
40 | Clc1ccc(-c2ccccc2CO[C@H]2CCNC2)cc1 [Example D-12, (S)-3-(4′-Chloro-biphenyl-2-ylmethoxy)-pyrrolidine] | 7.00 | 7.38
41 | Fc1ccc(CO[C@H]2CCNC2)c(-c2ccccc2F)c1 [Example A-25, (S)-(5,2′-Difluoro-biphenyl-2-ylmethoxy)-pyrrolidine hydrochloride] | 6.82 | 7.58
42 | Fc1ccccc1-c1c(F)cccc1CO[C@H]1CCNC1 [Example A-32, (3S)-3-[(2′,6-difluorobiphenyl-2-yl)methoxy]pyrrolidine hydrochloride] | 6.12 | 7.62
43 | Fc1ccc(-c2cccc(OC(F)(F)F)c2)c(CO[C@H]2CCNC2)c1 [Example D-95, (S)-3-(4-Fluoro-3′-trifluoromethoxy-biphenyl-2-ylmethoxy)-pyrrolidine] | 6.91 | 6.48
44 | COc1ccccc1-c1ccccc1CO[C@H]1CCNC1 [Example D-24, (S)-3-(2′-Methoxy-biphenyl-2-ylmethoxy)-pyrrolidine] | 5.90 | 6.64
45 | Clc1ncccc1-c1ccccc1CO[C@H]1CCNC1 [Example D-118, (S)-2-Chloro-3-[2-(pyrrolidin-3-yloxymethyl)-phenyl]-pyridine] | 5.45 | ≤ 5.00
